Experimental data taken from patent US20230183188A1, “ENPP1 MODULATORS AND USES THEREOF” (Vir Biotechnology, Inc., priority 2020, published 2023).

target: T1, recombinant protein containing the human ENPP1 enzymatic domain (Homo sapiens, UniProt P22413); assay: ENPP1 Enzymatic Inhibition Assay (2′3′-cGAMP substrate, AMP-Glo luminescence); assay type: biochemical; details: 1 nM ENPP1, 20 uM 2′3′-cGAMP substrate, 30 minutes at 37° C.
T1 construct: recombinant protein containing the human ENPP1 enzymatic domain; purchased R&D Systems 6136-EN-010
T1 sequence (P22413 191-591 limits assumed): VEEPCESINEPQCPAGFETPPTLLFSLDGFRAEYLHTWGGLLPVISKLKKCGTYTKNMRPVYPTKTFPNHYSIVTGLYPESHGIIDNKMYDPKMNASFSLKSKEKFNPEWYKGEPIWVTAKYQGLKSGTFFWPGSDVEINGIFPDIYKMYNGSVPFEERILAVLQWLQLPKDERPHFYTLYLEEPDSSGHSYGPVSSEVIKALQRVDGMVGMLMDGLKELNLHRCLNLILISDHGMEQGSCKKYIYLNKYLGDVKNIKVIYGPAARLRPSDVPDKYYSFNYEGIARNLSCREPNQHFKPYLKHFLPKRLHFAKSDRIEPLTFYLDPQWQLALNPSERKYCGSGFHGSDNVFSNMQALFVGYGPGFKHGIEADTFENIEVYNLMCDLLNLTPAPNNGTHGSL
Description: The inhibition of ENPP1's phosphodiesterase activity were tested in a purified enzymatic assay using 2′3′-cyclic GAMP as a substrate which allowed for the release of cleaved AMP to be monitored using a luminescent assay.
Putative inhibitors were diluted in assay buffer (50 mM Tris pH 8.0, 250 mM NaCl, 0.5 mM CaCl2, 1 uM ZnCl2, 1% DMSO) and pre-incubated for 15 minutes at 37° C. with recombinant protein containing the human ENPP1 enzymatic domain (R&D Systems cat. #6136-EN-010). The enzymatic reaction was initiated upon addition of the 2′3′-cGAMP substrate. The final reaction concentrations were 1 nM ENPP1 and 20 uM 2′3′-cGAMP substrate in a 25 uL volume. Inhibitor concentrations ranged from 10 uM to 0.2 nM. The reaction was incubated for 30 minutes at 37° C.
After reacting for 30 minutes, the amount of AMP generated from the cleavage of 2′3′-cGAMP was determined using the Promega AMP-Glo method according to the manufacturer's protocol. First, AMP-Glo reagent 1 was added and incubated with the reaction mix for 1 hour at room temperature. Second, AMP Detection solution was added and the mixture was incubated for an additional hour. The luminescence of the mixture was read on a Perkin Elmer Ensight plate reader.
The maximum and minimum levels of ENPP1 activity were established using no inhibitor and no enzyme controls, respectively. The activity observed using ENPP1 inhibitors was quantified as the percent of activity relative to these controls. IC50 values were calculated using GraphPad Prism by fitting a sigmoidal variable slope nonlinear regression model to the data.

IC50 [nM]	Compound
10 to 100	COc1ccc2c(Oc3ccc(S(N)(=O)=NC[C@H]4CCCN4C(=O)OC(C)(C)C)cc3)ccnc2c1 (stereo partly drawn) [Compound 5, tert-butyl (2R)-2-(((amino(4-((7-methoxyquinolin-4-yl)oxy)phenyl)(oxo)-I^6-sulfaneylidene)amino)methyl) pyrrolidine-1-carboxylate]
10 to 100	COc1ccc2c(Oc3ccc(S(N)(=O)=NCCOc4ccccc4)cc3)ccnc2c1 (stereo not drawn) [Compound 34, 4-((7-methoxyquinolin-4-yl)oxy)-N′-(2-phenoxyethyl)benzenesulfonimidamide]
< 10	COc1ccc2c(Oc3ccc(S(N)(=O)=NCc4nccs4)cc3)ccnc2c1 (stereo not drawn) [Compound 17, 4-((7-methoxyquinolin-4-yl)oxy)-N′-(thiazol-2-ylmethyl)benzenesulfonimidamide]
> 100	CCN(CC)S(=N)(=O)c1ccc(Oc2ccnc3cc(OC)ccc23)cc1 (stereo not drawn) [Compound 23, N,N-diethyl-4-((7-methoxyquinolin-4-yl)oxy)benzenesulfonimidamide]
10 to 100	COc1ccc2c(Oc3ccc(S(N)(=O)=NCc4ccccn4)cc3)ccnc2c1 (stereo not drawn) [Compound 26, 4-((7-methoxyquinolin-4-yl)oxy)-N′-(pyridin-2-ylmethyl)benzenesulfonimidamide]
< 10	COc1ccc2c(Oc3ccc(S(N)(=O)=NC4(c5ccccn5)CC4)cc3)ccnc2c1 (stereo not drawn) [Compound 33, 4-((7-methoxyquinolin-4-yl)oxy)-N′-(1-(pyridin-2-yl)cyclopropyl)benzenesulfonimidamide]
10 to 100	COc1ccc2c(Oc3ccc(S(N)(=O)=Nc4ccccc4)cc3)ccnc2c1 (stereo not drawn) [Compound 20, 4-((7-methoxyquinolin-4-yl)oxy)-N′-phenylbenzenesulfonimidamide]
10 to 100	COc1ccc2c(Oc3ccc(S(N)(=O)=NCCNC(=O)OC(C)(C)C)cc3)ccnc2c1 (stereo not drawn) [Compound 39, tert-butyl (2-((amino(4-((7-methoxyquinolin-4-yl)oxy)phenyl)(oxo)-λ^6-sulfaneylidene)amino)ethyl) carbamate]
< 10	COc1ccc2c(Oc3ccc(S(N)(=O)=NCC4CCC4)cc3)ccnc2c1 (stereo not drawn) [Compound 36, N′-(cyclobutylmethyl)-4-((7-methoxyquinolin-4-yl)oxy)benzenesulfonimidamide]
